Residue numbers refer to the chain shown, from its start. Values joined by “and” are separate entries in the source; they are usually repeats but may differ in a detail not shown here. Equal entries are not always repeated.
How the values were obtained:
Experiment in all cases: biochemical
Conditions in all cases: IC50 (M)
[1] = target: T1, recombinant wildtype and mutated PPO (Amaranthus PPO2: PPX2L_WC SEQ ID NO 2, PPX2L_AC SEQ ID NO 4, dG210 SEQ ID NO 6 & 8) (Amaranthus tuberculatus, UniProt Q0NZW9, D133A/F420I/R128Y)
T1 sequence (Q0NZW9 1-534 R128Y/D133A/F420I): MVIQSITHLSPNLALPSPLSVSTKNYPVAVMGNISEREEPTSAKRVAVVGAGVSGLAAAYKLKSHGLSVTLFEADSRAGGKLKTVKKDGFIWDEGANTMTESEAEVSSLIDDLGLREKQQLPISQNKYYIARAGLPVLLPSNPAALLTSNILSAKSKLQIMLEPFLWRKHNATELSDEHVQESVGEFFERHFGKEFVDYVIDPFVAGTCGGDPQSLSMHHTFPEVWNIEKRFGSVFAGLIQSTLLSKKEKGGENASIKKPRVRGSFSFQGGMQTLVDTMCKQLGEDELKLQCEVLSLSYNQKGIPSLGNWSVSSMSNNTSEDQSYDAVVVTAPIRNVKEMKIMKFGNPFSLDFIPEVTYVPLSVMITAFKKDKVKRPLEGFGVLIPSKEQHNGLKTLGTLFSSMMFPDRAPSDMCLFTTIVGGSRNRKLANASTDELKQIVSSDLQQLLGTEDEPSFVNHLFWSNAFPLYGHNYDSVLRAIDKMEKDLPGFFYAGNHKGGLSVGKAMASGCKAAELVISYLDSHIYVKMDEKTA

[2] = target: T2, recombinant wildtype and mutated PPO (Amaranthus PPO2: PPX2L_WC SEQ ID NO 2, PPX2L_AC SEQ ID NO 4, dG210 SEQ ID NO 6 & 8) (Amaranthus tuberculatus, UniProt Q0NZW9, D133A/F420L/R128I)
T2 sequence (Q0NZW9 1-534 R128I/D133A/F420L): T1 sequence (Q0NZW9 1-534 R128Y/D133A/F420I) with Y128I, I420L

[3] = target: T3, recombinant wildtype and mutated PPO (Amaranthus PPO2: PPX2L_WC SEQ ID NO 2, PPX2L_AC SEQ ID NO 4, dG210 SEQ ID NO 6 & 8) (Amaranthus tuberculatus, UniProt Q0NZW9, D133A/F420M/R128N)
T3 sequence (Q0NZW9 1-534 R128N/D133A/F420M): T1 sequence (Q0NZW9 1-534 R128Y/D133A/F420I) with Y128N, I420M

[4] = target: recombinant wildtype and mutated PPO (Amaranthus PPO2: PPX2L_WC SEQ ID NO 2, PPX2L_AC SEQ ID NO 4, dG210 SEQ ID NO 6 & 8) (Amaranthus tuberculatus, UniProt Q0NZW9, D133A/F420V/R128C)
recombinant wildtype and mutated PPO (Amaranthus PPO2: PPX2L_WC SEQ ID NO 2, PPX2L_AC SEQ ID NO 4, dG210 SEQ ID NO 6 & 8) (Amaranthus tuberculatus, UniProt Q0NZW9, D133A/F420V/R128C), sequence (Q0NZW9 1-534 R128C/D133A/F420V): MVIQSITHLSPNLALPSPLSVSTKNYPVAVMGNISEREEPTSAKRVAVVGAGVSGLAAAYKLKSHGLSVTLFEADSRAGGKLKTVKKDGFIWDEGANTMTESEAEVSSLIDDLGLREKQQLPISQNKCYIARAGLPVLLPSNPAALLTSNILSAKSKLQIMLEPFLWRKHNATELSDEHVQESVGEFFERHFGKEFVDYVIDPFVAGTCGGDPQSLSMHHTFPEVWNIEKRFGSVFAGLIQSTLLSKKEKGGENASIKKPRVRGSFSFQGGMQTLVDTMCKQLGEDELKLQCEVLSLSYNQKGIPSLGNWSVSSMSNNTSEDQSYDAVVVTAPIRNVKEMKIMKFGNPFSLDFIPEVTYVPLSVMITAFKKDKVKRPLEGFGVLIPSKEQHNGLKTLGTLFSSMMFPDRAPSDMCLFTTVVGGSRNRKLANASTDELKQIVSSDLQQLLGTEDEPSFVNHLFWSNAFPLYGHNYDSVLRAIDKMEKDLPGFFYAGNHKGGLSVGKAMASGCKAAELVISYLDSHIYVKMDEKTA

[5] = target: recombinant wildtype and mutated PPO (Amaranthus PPO2: PPX2L_WC SEQ ID NO 2, PPX2L_AC SEQ ID NO 4, dG210 SEQ ID NO 6 & 8) (Amaranthus tuberculatus, UniProt Q0NZW9, D133A/F420M/R128H)
recombinant wildtype and mutated PPO (Amaranthus PPO2: PPX2L_WC SEQ ID NO 2, PPX2L_AC SEQ ID NO 4, dG210 SEQ ID NO 6 & 8) (Amaranthus tuberculatus, UniProt Q0NZW9, D133A/F420M/R128H), sequence (Q0NZW9 1-534 R128H/D133A/F420M): as the sequence (Q0NZW9 1-534 R128C/D133A/F420V) above, with C128H, V420M counted along it

[6] = target: recombinant wildtype and mutated PPO (Amaranthus PPO2: PPX2L_WC SEQ ID NO 2, PPX2L_AC SEQ ID NO 4, dG210 SEQ ID NO 6 & 8) (Amaranthus tuberculatus, UniProt Q0NZW9, D133A/F420M/R128C)
recombinant wildtype and mutated PPO (Amaranthus PPO2: PPX2L_WC SEQ ID NO 2, PPX2L_AC SEQ ID NO 4, dG210 SEQ ID NO 6 & 8) (Amaranthus tuberculatus, UniProt Q0NZW9, D133A/F420M/R128C), sequence (Q0NZW9 1-534 R128C/D133A/F420M): as the sequence (Q0NZW9 1-534 R128C/D133A/F420V) above, with V420M counted along it

[7] = target: recombinant wildtype and mutated PPO (Amaranthus PPO2: PPX2L_WC SEQ ID NO 2, PPX2L_AC SEQ ID NO 4, dG210 SEQ ID NO 6 & 8) (Amaranthus tuberculatus, UniProt Q0NZW9, D133A/F420M/R128V)
recombinant wildtype and mutated PPO (Amaranthus PPO2: PPX2L_WC SEQ ID NO 2, PPX2L_AC SEQ ID NO 4, dG210 SEQ ID NO 6 & 8) (Amaranthus tuberculatus, UniProt Q0NZW9, D133A/F420M/R128V), sequence (Q0NZW9 1-534 R128V/D133A/F420M): as the sequence (Q0NZW9 1-534 R128C/D133A/F420V) above, with C128V, V420M counted along it

Structure (SMILES)	IC50 [1]	IC50 [2]	IC50 [3]	IC50 [4]	IC50 [5]	IC50 [6]	IC50 [7]
C#CCN1C(=O)C(F)(F)Oc2cc(F)c(-n3c(=O)n(C)c(=S)n(C)c3=O)cc21	4.82e-07 M and 2.63e-06 M	4.05e-07 M and 2.45e-07 M	7.12e-08 M and 4.97e-08 M	1.66e-07 M and 2.66e-07 M	2.64e-08 M and 2.13e-08 M	2.53e-08 M and 2.33e-08 M	6.5e-08 M and 4.86e-08 M
C#CCN1C(=O)C(F)(F)Oc2cc(F)c(-n3c(=O)cc(C(F)(F)F)n(C)c3=O)cc21	4.46e-07 M	2.69e-07 M	5.94e-08 M	2.6e-08 M	1.05e-08 M	1.11e-08 M	4.65e-08 M
C#CCN1C(=O)C(F)(F)Oc2cc(F)c(N3C(=O)C4=C(CCCC4)C3=O)cc21	≥ 1e-05 M	≥ 1e-05 M	≥ 1e-05 M	3.7e-06 M	3.07e-06 M	3.57e-06 M	3.11e-06 M
COC(Oc1ccccc1Oc1cc(-n2c(=O)cc(C(F)(F)F)n(C)c2=O)c(F)cc1Cl)C(=O)OC1CCCCC1 (stereo not shown)	6.82e-07 M	1.07e-07 M	1.48e-07 M	1.01e-07 M	2.97e-07 M	2.98e-08 M	1.49e-08 M
COC(=O)C(OC)Oc1ccccc1Oc1cc(-n2c(=O)cc(C(F)(F)F)n(C)c2=O)c(F)cc1Cl (stereo not shown)	2.86e-08 M	7.13e-08 M	1.2e-07 M	1.16e-08 M	1.76e-08 M	1.16e-08 M	1.49e-08 M
CCOC(=O)COc1ncccc1Oc1cc(-n2c(=O)cc(C(F)(F)F)n(C)c2=O)c(F)cc1Cl [A.13, ethyl [3-[2-chloro-4-fluoro-5-(1-methyl-6-trifluoromethyl-2,4-dioxo-1,2,3,4-tetrahydropyrimidin-3-yl)phenoxy]-2-pyridyloxy]acetate]	4.64e-07 M	2.01e-07 M	1.92e-07 M	1.24e-07 M	4.18e-08 M	6.95e-08 M	3.58e-08 M
O=C(O)c1cc(Oc2ccc(C(F)(F)F)cc2Cl)ccc1[N+](=O)[O-] [ACIFLUORFEN]	≥ 1e-05 M	≥ 1e-05 M	≥ 1e-05 M	6.72e-06 M	≥ 1e-05 M	≥ 1e-05 M	≥ 1e-05 M
C=CCOC(=O)C(C)(C)OC(=O)c1cc(-n2c(=O)cc(C(F)(F)F)n(C)c2=O)ccc1Cl [BUTAFENACIL]	5.47e-08 M	8.02e-08 M	2.84e-08 M	6.69e-08 M	1.28e-08 M	2.31e-08 M	1.05e-08 M
CCOC(=O)C(Cl)Cc1cc(-n2nc(C)n(C(F)F)c2=O)c(F)cc1Cl (stereo not shown) [CARFENTRAZONE-ETHYL]	2.82e-07 M	1.61e-07 M	1.88e-07 M	3.96e-07 M	1.21e-07 M	2.99e-08 M	2.29e-08 M
C#CCN1C(=O)COc2cc(F)c(N3C(=O)C4=C(CCCC4)C3=O)cc21 [Flumioxazin, flumioxazin]	≥ 1e-05 M	≥ 1e-05 M	6.15e-06 M	7.28e-06 M	≥ 1e-05 M	≥ 1e-05 M	≥ 1e-05 M
CS(=O)(=O)NC(=O)c1cc(Oc2ccc(C(F)(F)F)cc2Cl)ccc1[N+](=O)[O-] [Fomesafen, fomesafen]	2.15e-05 M	≥ 1e-05 M	1.07e-05 M	2.36e-06 M	2.91e-06 M	1.1e-05 M	≥ 1e-05 M
CCOC(=O)C(C)OC(=O)c1cc(Oc2ccc(C(F)(F)F)cc2Cl)ccc1[N+](=O)[O-] (stereo not shown) [Lactofen, lactofen]	4.8e-08 M	1.3e-07 M	1.67e-07 M	1.5e-08 M	6.13e-08 M	6.39e-08 M	9.41e-08 M
CCOc1cc(Oc2ccc(C(F)(F)F)cc2Cl)ccc1[N+](=O)[O-] [OXIFLUORFEN]	1.17e-06 M	4.21e-06 M	3.91e-07 M	6.52e-08 M	3.68e-07 M	4.16e-07 M	1.05e-06 M

— US11866720B2, “Transgenic or non-transgenic plants with mutated protoporphyrinogen oxidase having increased tolerance to herbicides” (priority 2013, dated 2024)
